# Measured values as given in EP0615449B1, “USE OF FLAVINE DERIVATIVES IN THE PRODUCTION OF MEDICO-SURGICAL SANITARY ARTICLES AND SANITARY ARTICLES SO OBTAINED” (BERQUE, Jean, priority 1992, dated 1994).
# Assays:
# [1] = Cytotoxicity observed in the in vitro tests of FAD; format: cell-based
# [2] = vulcanisation à chaud du latex; cited from earlier work
# HIV [3] = test: In vitro antiviral tests of FAD compared with AZT and DDI; format: cell-based
# VIH = conditions: cited from earlier work
# rougeole = conditions: traitement par la vitamine A, AFRIQUE DU SUD; cited from earlier work
# Herpès génital = test: Clinical observation, intravenous vitamin B2 in a patient with recurrent genital herpes; format: in vivo; conditions: récurrence importante d'un Herpès génital; voie intra-veineuse, injection unique de 20 mg par jour
# Excerpt: (§1) L'idée de départ découlait donc de constatations expérimentales concernant la photosynthèse protéique à l'échelle animale et la photosynthèse virale. On a donc utilisé initialement la vitamine B2 en fonction de ses propriétés d'absorption de la lumière avec l'idée d'interposer un écran photoprotecteur entre le rayonnement solaire UV parvenant à l'organisme et les virus HIV et HSV dont les patients étaient porteurs. Ce concept a été formulé dans le but d'"éteindre" ces virus dont il semblait, en fonction des hypothèses émises, que le rayonnement ultra-violet activait tant leur synthèse que leur replication. Les effets cliniques spectaculaires et très rapidement obtenus ont confirmé l'hypothèse de départ. C'est par la suite que le Demandeur s'est rendu compte qu'outre les propriétés photoprotectrices de la vitamine B2, la formule biochimique diphosphonucléotidique de son métabolite actif, le FAD, jouait également un rôle important.
# [4] = lait exposé à la lumière, même dans un emballage transparent; cited from earlier work
# [5] = tested on: cellules CEM-SS infectées par HIV1; test: In vitro anti-viral test on HIV1-infected CEM-SS cells (Institut de Virologie, Strasbourg), read out as reverse transcriptase inhibition; format: cell-based; conditions: dilution au 1/5000è
# Excerpt: Début 1992, un test "in vitro" a été effectué par l'Institut de Virologie de la Faculté de Strasbourg. Le test est positif à la dilution au 1/5000è sur les cellules CEM-SS infectées par HIV1; l'effet anti-viral est objectivé par une inhibition de la transcriptase reverse supérieure à 50%.
# HIV [6] = test: Clinical observation, intravenous vitamin B2 in an AIDS patient (stage IV); format: in vivo; conditions: malade sidéen stade IV; voie intra-veineuse, injection unique de 20 mg par jour
# Excerpt: as §1
compound,measurement,setting,value
"Cc1cc2nc3c(=O)[nH]c(=O)nc-3n(C[C@H](O)[C@H](O)[C@H](O)COP(=O)(O)OP(=O)(O)OC[C@H]3O[C@@H](n4cnc5c(N)ncnc54)[C@H](O)[C@@H]3O)c2cc1C [FAD, flavine -adenine dinucleotide]",cyto-toxicité,[1],sans aucune cyto-toxicité
same,stabilité thermique,[2],thermostables
same,activité in vitro,HIV [3],aussi actif in vitro que l'AZT et plus actif que le DDI
C=CC1=C(C)c2cc3[n-]c(cc4[n-]c(cc5nc(cc1n2)C(C)=C5C=C)c(C)c4CCC(=O)O)c(CCC(=O)O)c3C.[Fe+2] [Hème],activité anti-VIH in vitro,VIH,exerce une activité anti-VIH in vitro
N[C@@H](CCC(=O)N[C@@H](CS)C(=O)NCC(=O)O)C(=O)O [glutathion],activité anti-VIH in vitro,VIH,exerce une activité anti-VIH in vitro
CC1=C(/C=C/C(C)=C/C=C/C(C)=C/CO)C(C)(C)CCC1 [vitamine A],amélioration de la rougeole,rougeole,amélioration notable
"Cc1cc2nc3c(=O)[nH]c(=O)nc-3n(C[C@H](O)[C@H](O)[C@H](O)CO)c2cc1C [vitamine B2, Riboflavine]",effets cliniques,Herpès génital,résultats spectaculaires
same,Riboflavine détruite,[4],85%
same,inhibition de la transcriptase reverse,[5],> 50%
same,"test ""in vitro"" (effet anti-viral)",[5],positif
same,effets cliniques,HIV [6],résultats spectaculaires
acides biliaires,activité anti-VIH in vitro,VIH,actifs in vitro sur le VIH
